What was measured:
[1] = system: human nasopharyngeal carcinoma cells (SUNE1); experiment: MTT cell viability assay, SUNE1; assay type: cell-based
Description: (§1) Human cervical epitheloid carcinoma cells (HeLa), human hepatocellular carcinoma cells (HepG2 and Hep3B), human breast cancer cells (MCF-7), human coloadenocarcinoma cells (HCT-8), and normal human lung fibroblast cells (CCD-19Lu) were purchased from American Type Culture Collection (ATCC) Rockville, Md., USA. The human hepatocellular cancinoma cells QGY-7703, and the multi-drug resistant cell line QGY-TR50 derived from QGY-7703, were generously provided by Prof. Yong Xie (The Hong Kong University of Science and Technology, Hong Kong PRC). QGY-TR50 cells were isolated and cultured as described (J. Zhou, S. C. Cheng, D. Luo, Y. Xie Biochem. Biophys. Res. Commun. 2001, 280, 1237-1242). Human nasopharyngeal carcinoma cells (SUNE1 and its cisplatin-resistant variant—CNE2) were derived from poorly differentiated NPC in Chinese patients and were generously provided by Dr. S. W. Tsao (The University of Hong Kong, Hong Kong PRC). Cell culture flasks and 96-well microtitre plates were from Nalge Nunc Int. Culture medium, other medium constituents and phosphate buffer saline (PBS) were obtained by Gibco BRL Rockville, Md., USA. Cell Proliferation kit I (MTT) was purchased from Roche. Mannheim, Germany.

[2] = system: multi-drug resistant liver tumor cells (QGY-TR50); experiment: Murine xenograft tumor model; assay type: in vivo, mouse; details: 10 mg/kg/day i.p. daily for 22 days, nude mice, vs control group
Description: The murine model for anti-tumor evaluation in vivo was the male BALB/c-nu/nu mouse originated from Charles River Laboratories, Inc. and the colony was maintained in the Laboratory Animal Unit, The University of Hong Kong. Mice were grafted in the left flank with QGY-TR50 cells subcutaneously. All of the experiments were carried out according to the guidelines of the Committee on the Use of Live Animals in Teaching and Research, The University of Hong Kong.
The anti-tumor effect of complex 1 was examined in the xenograft mice model. A complex 1 suspension was prepared by dissolving the complex in 1% EtOH and mixed with a solution containing 0.2% sodium carboxymethyl cellulose (Sigma) and 0.1% Tween 80 (Sigma) in PBS. A dose tolerance test was conducted to determine the appropriate dose ranges for complex 1. […] The dimensions of the tumors were measured twice weekly with calipers, and tumor volumes were estimated using two-dimensional measurements of length and width and calculated with the formula [l×(w)^2]×0.52 (l, length; w, width) according to described procedures (M. Guba, P. von Breitenbuch, M. Steinbauer, G. Koehl, S. Flegel, M. Hornung, C. J. Bruns, C. Zuelke, S. Farkas, M. Anthuber, K. W. Jauch, E. K. Geissler, Nat Med 2002, 8, 128-135). The weights of the mice were also recorded twice weekly throughout the course of treatment. […]

cytochrome c = experiment: Western blotting of mitochondrial and cytosolic fractions, cytochrome c; assay type: cell-based, human; details: HeLa treated with complex 1
Description: Preparation of Mitochondrial and Cytosolic Fractions. Subcellular fractionations of cells were carried out as described previously with modifications […]. In brief, cells were harvested by centrifugation at 1000 g for 5 min at 4° C. Cell pellets were washed once with ice-cold phosphate-buffered saline and resuspended in 5 volumes of buffer A (20 mM HEPES-KOH, pH 7.5, 10 mM KCl, 1.5 mM MgCl2, 1 mM sodium EDTA, 1 mM sodium EGTA, 1 mM dithiothreitol, 0.1 mM phenylmethylsulfonyl fluoride, 1× proteinase inhibitor mix) containing 250 mM sucrose. After incubation on ice for 15 min, the cells were homogenized with a 25-gauge needle for 20 strokes, and the homogenates were centrifuged at 1,000 g for 5 min at 4° C. […] The protein concentration of cell lysates in different portions was measured using a protein detection kit (Bio-Rad). […] Signals were detected using an ECL detection kit (Amersham Pharmacia Biotech) followed by exposure to X-ray films (Fujifilm).
After treatment with complex 1 for different time intervals, the expressions of caspase 3, Bid and PARP were detected by the Western blotting analysis. […]

[3] = system: human breast cancer cells (MCF-7); experiment: MTT cell viability assay, MCF-7; assay type: cell-based
Description: as §1

[4] = system: cisplatin-resistant variant (CNE2) of human nasopharyngeal carcinoma cells; experiment: MTT cell viability assay, CNE2; assay type: cell-based
Description: as §1

[5] = system: human hepatocellular cancinoma cells QGY-7703; experiment: MTT cell viability assay, QGY-7703; assay type: cell-based
Description: as §1

[6] = system: human hepatocellular carcinoma cells (HepG2); experiment: MTT cell viability assay, HepG2; assay type: cell-based
Description: as §1

[7] = IC50 of cisplatin divided by IC50 of complex

- IC50 ratio cisplatin/complex, SUNE1 [1, 7]: 4.8
- IC50 ([1]; MTT, 37° C., 48 h, mean ± SD): 2450 nM
- IC50 ratio cisplatin/complex, MCF-7 [3, 7]: 63.89
- IC50 ([3]; MTT, 37° C., 48 h, mean ± SD): 550 nM
- IC50 ratio cisplatin/complex, CNE2 [4, 7]: 17.2
- IC50 ([4]; MTT, 37° C., 48 h, mean ± SD): 3350 nM
- IC50 ratio cisplatin/complex, QGY-7703 [5, 7]: 763
- IC50 ([5]; MTT, 37° C., 48 h, mean ± SD): 60 nM
- IC50 ratio cisplatin/complex, HepG2 [6, 7]: 22.7
- IC50 ([6]; MTT, 37° C., 48 h, mean ± SD): 210 ± 10 nM
Substance: [Yb2(OEP)2](μ-OH)2 [Complex 1]
- inhibition of the tumor volume [2]: 40%
- amount of cytochrome c in the cytosolic fraction (cytochrome c): increase
- amount of cytochrome c in the mitochondria (cytochrome c): corresponding decrease
- cytotoxic activity toward breast cancer cell line (MCF-7), times higher than that of cisplatin ([3]; compared with cisplatin): 60 times
- times more effective than cisplatin in eradicating QGY-7703 human liver cancer cell line ([5]; compared with cisplatin): 760 times

— patent publication US20100069345A1, “Lanthanide-porphyrin complexes as anti-tumor agents” (priority 2005, published 2010)
